The values that follow are results of earlier work, collected in US8993607B2, “Therapeutic compounds” (Rutgers, The State University of New Jersey, priority 2007, dated 2015).

pIC50: −log10 of the molar value.

Data set [1] concerns human breast cancer cell lines HBC-4, BSY-1, HBC-5, MCF-7, and MDA-MB-231. The following applies: range over HBC-4, BSY-1, HBC-5, MCF-7, MDA-MB-231; Sohda et al., 2005.
The next data set deals with SK-N-AS. Particulars: human neuroblastoma cell line SK-N-AS; Binz et al., 2005; read-out: cytotoxicity IC50.
The test system of another data set is LANS. Particulars: human neuroblastoma cell line LANS; Binz et al., 2005; read-out: cytotoxicity IC50.
The next data set relates to LAN1. The following applies: human neuroblastoma cell line LAN1; Binz et al., 2005; read-out: cytotoxicity IC50.
A further data set has as its system K62 leukemia cells. The following applies: Tauchi et al., 2003.
The test system of data set [2] is natural bone marrow CD34-positive cells. Particulars: compared, Tauchi et al., 2003.
Another data set concerns WAC2. Particulars: human neuroblastoma cell line WAC2; Binz et al., 2005; read-out: cytotoxicity IC50.
Another data set concerns MiaPaCa. The following applies: human pancreatic carcinoma MiaPaCa; Liu et al., 2005; read-out: cytotoxicity IC50.
The target in another data set is telomerase. Particulars: read-out: telomerase inhibitory activity IC50.

Take `CC[C@H](C)[C@@H]1NC(=O)c2nc(oc2-c2ccccc2)-c2csc(n2)-c2coc(n2)-c2coc(n2)-c2coc(n2)CNC(=O)[C@@H](C(C)C)NC1=O` [YM-216391]: in data set [1], the GI50 is 15 to 33 nM.
`Cc1oc2nc1-c1nc(co1)-c1nc(co1)-c1nc(co1)-c1nc(co1)-c1nc(co1)C1=NC(CS1)c1nc-2c(C)o1` (stereo not drawn) [telomestatin]: the negative logarithm of the IC50 (pIC50) is 6.10 with SK-N-AS; 5.60 with LANS; 5.40 in the data set with LAN1; 5.49 in the data set with WAC2; 6.30 with MiaPaCa; 8.30 at telomerase. Also, in the data set with K62 leukemia cells, the plating efficiency result was “suppress the plating efficiency”. Besides, the “effect on burst-forming units—erythrocyte (BFU-E) and colony-forming units—granulocyte/macrophage (CFU-GM)” value in [2] is on record as “much lesser effect”.

A word on the GI50: it is the concentration giving 50% growth inhibition. A word on the pIC50: it is the IC50 on a negative log10 scale, so that one unit is a factor of ten.
